Experimental findings from patent publication US4285956A, “Xanthene and thioxanthene derivatives, compositions thereof and treatment therewith” (priority 1978, dated 1981) are described below.

Experiment [1] is described as follows: Neuroleptic effect: duration and strength (remarks of Table 2). Format: in vivo. As to conditions: in words; for Duration (remarks, words): duration of neuroleptic effect; for Strength of effect (remarks, words): strength of neuroleptic effect. The source says:
The pharmacological testing of the novel xanthones and thioxanthenes of Formula I consisted of standard and reliable tests. […]

Experiment [2] is described as follows: Methylphenidate antagonism (mice biting corrugated paper). It is filed as in vivo. The note with it: for ED50: Mus musculus, ip. How it is done: Methylphenidate antagonism (ED50 mg/kg i.p.)
Perspex observation cages without bottom and lid, consisting of 5 sections each measuring 12×25×30 cm. White corrugated paper. Mice, male, 18-25 g.
The test substance is given i.p. in the doses 0, 1/8, 1/32 and 1/128 of the determined "i.p. LD50". 3×2 mice are used for each dose level. Two or 24 hours after injection of test substance, methylphenidate, 60 mg/kg, is injected s.c. After administration of methylphenidate the mice are placed in the observation cages, 2 in each cage, where they remain for exactly 1 hour. The cages are placed on corrugated paper, the corrugations facing upwards. It is examined whether the mice have been biting the corrugated paper or not. […] If one or more of the control pairs have not been biting, the test has to be repeated on a new set of mice.
The result is stated in fractions: 0/3, 1/3, 2/3 and 3/3 where 0, 1, 2 and 3 are the number of pairs which have not been biting on receipt of the dose in question.
The results are calculated as the dose (ED50), which causes antagonism in 50% of the test animals.

The nature of experiment [3]: Amphetamine antagonism (stereotypy in rats). It is filed as in vivo. The note with it: Rattus norvegicus, ip, 24 h, read-out: Amphetamine antagonism ED50.
A short description of experiment [4]: Catalepsy wire mesh, rat, max. Format: in vivo, rats. As to conditions: Rattus norvegicus, sc; rats, s.c., strongest effect within first 6 hours; read-out: Catalepsy wire mesh, rat, max. ED50. How it is done: Catalepsy wire mesh, rat, max. (ED50 mg/kg s.c.)
A vertical wire netting (50 cm×49 cm). The meshes (openings) of the netting are square (1 cm×1 cm). The wire diameter is 2 mm. Stop watch. Rats, male, 180-200 g.
The animals are labeled and used in groups of five. The test substance is injected subcutaneously (s.c.) (5 ml/kg) at 4 dose levels selected from the fixed dose scale.
The animals are placed in the middle of the vertical wire netting 60, 120, 180, 240, 300 and 360 minutes after injection of the test compound. The animals are considered cataleptic when they remain immobile during a period of 15 seconds. This cataleptic reaction is designated +. If the rats are "atonic" and passively slide down the wire mesh they are considered not cataleptic. If the animals climb up and down the wire mesh they are nor cataleptic. In both situations the designation - is used.

The mark [5] stands for this setting: mice, i.p., methylphenidate 60 mg/kg s.c. 2 h after test substance, read-out: Methylphenidate antagonism ED50, 2 h.
Setting [6] is: mice, i.p., methylphenidate 60 mg/kg s.c. 24 h after test substance, read-out: Methylphenidate antagonism ED50, 24 h.

Take `N[C@H]1CC[C@H](CN2CCC(=C3c4ccccc4Sc4ccc(Cl)cc43)CC2)CC1` [Lu 16-081]: in experiment [1], the “Duration (remarks, words)” value is “short acting” and the “Strength of effect (remarks, words)” value is on record as “moderately strong”. In addition, the ED50 in experiment [2] (setting [5]) stood at 0.5 mg/kg. Also, the median effective dose (ED50) in experiment [2] (setting [6]) was roughly 10 mg/kg.
For the compound `O[C@H]1CC[C@H](CN2CCC(=C3c4ccc(F)cc4Sc4cc(F)ccc43)CC2)CC1` [Lu 15-062, 1-(trans-4-hydroxycyclohexylmethyl)-4-(3,6-di-fluoro-9-thioxanthenylidene)-piperidine], in experiment [1], the “Duration (remarks, words)” value is on record as “short acting”. For the same compound, in experiment [1], the “Strength of effect (remarks, words)” value is given as “moderately strong”. Further, the values for the median effective dose (ED50) in experiment [2] (setting [5]), in experiment [2] (setting [6]) and in experiment [3] were 0.77 mg/kg, greater than 10 mg/kg and 0.85 mg/kg, respectively.
For the compound `O=C(CCCN1CCC(O)(c2ccc(Cl)cc2)CC1)c1ccc(F)cc1` [haloperidol, reference compound], the “Duration (remarks, words)” value in experiment [1] is “short acting”. Moreover, the “Strength of effect (remarks, words)” value in experiment [1] is “very strong”. The 50% effective dose (ED50) in experiment [4] amounted to 0.21 mg/kg; in experiment [2] (2 h, read-out: Methylphenidate antagonism ED50, 2 h), 0.06 mg/kg; in experiment [3], 0.14 mg/kg.
As for `OCCN1CCN(CCC=C2c3ccccc3Sc3ccc(Cl)cc32)CC1` [clopenthixol, reference compound], the “Duration (remarks, words)” value in experiment [1] is “short acting”. In experiment [1], the “Strength of effect (remarks, words)” value is listed as “moderately strong”. The median effective dose (ED50) in experiment [4] stood at 0.95 mg/kg; in experiment [2] (setting [5]) it was 1.2 mg/kg; in experiment [3], 0.77 mg/kg.
On to `O[C@H]1CC[C@H](CN2CCC(=C3c4ccc(F)cc4Sc4ccc(Cl)cc43)CC2)CC1` [Lu 14-114, 1-(trans-4-hydroxycyclohexylmethyl)-4-(2-chloro-6-fluoro-9-thioxanthenylidene)-piperidine], for which the “Duration (remarks, words)” value in experiment [1] is “short acting”. The “Strength of effect (remarks, words)” value in experiment [1] is “strong”. Also, the values for the ED50 in experiment [2] (setting [5]), in experiment [2] (setting [6]) and in experiment [3] were 0.1 mg/kg, 6.6 mg/kg and 0.35 mg/kg, respectively.
As to `O[C@@H]1CC[C@H](CN2CCC(=C3c4ccc(F)cc4Sc4ccc(Cl)cc43)CC2)C[C@H]1O` (relative stereo) [Lu 15-070, 1-(3-trans-4-cis-dihydroxycyclohexylmethyl)-4-(2-chloro-6-fluoro-9-thioxanthenylidene)-piperidine], the “Duration (remarks, words)” value in experiment [1] is on record as “moderately long acting”. Moreover, the ED50 in experiment [2] (setting [5]) was determined as 0.51 mg/kg; in experiment [2] (setting [6]) it was 0.5 mg/kg.
On to `Cc1ccc2c(c1)Sc1ccc(F)cc1C2=C1CCN(C[C@H]2CC[C@H](O)CC2)CC1` [Lu 14-090, 1-(trans-4-hydroxycyclohexylmethyl)-4-(2-fluoro-6-methyl-9-thioxanthenylidene)-piperidine], for which, in experiment [1], the “Duration (remarks, words)” value is “short acting” and the “Strength of effect (remarks, words)” value is on record as “moderately strong”. Moreover, the 50% effective dose (ED50) in experiment [2] (setting [5]) worked out at 1.25 mg/kg. The ED50 in experiment [2] (setting [6]) is 32 mg/kg.
For `Cc1ccc2c(c1)C(=C1CCN(C[C@H]3CC[C@H](O)CC3)CC1)c1ccc(F)cc1S2` [Lu 14-082, 1-(trans-4-hydroxycyclohexylmethyl)-4-(2-methyl-6-fluoro-9-thioxanthenylidene)-piperidine] the same measures were “short acting”, “moderately strong”, 0.79 mg/kg and greater than 10 mg/kg.
As to `CC1(O)CCC(CN2CCC(=C3c4ccc(F)cc4Sc4ccc(C(F)(F)F)cc43)CC2)CC1` (centres unmarked) [Lu 15-048, 1-(4-hydroxy-4-methylcyclohexylmethyl)-4-(2-trifluoromethyl-6-fluoro-9-thioxanthenylidene)-piperidine], the “Duration (remarks, words)” value in experiment [1] is on record as “long acting”. In addition, in experiment [1], the “Strength of effect (remarks, words)” value is “strong”. In addition, the 50% effective dose (ED50) in experiment [2] (setting [5]) is 1.3 mg/kg; in experiment [2] (setting [6]), 0.13 mg/kg; in experiment [3] it was less than 0.31 mg/kg.
For `CC(=O)N[C@H]1CC[C@H](CN2CCC(=C3c4ccc(F)cc4Sc4ccc(C(F)(F)F)cc43)CC2)CC1` [Lu 16-043], the “Duration (remarks, words)” value in experiment [1] is recorded as “long acting”. In addition, the “Strength of effect (remarks, words)” value in experiment [1] is recorded as “relatively strong”. Further, the figures for the ED50 in experiment [4], in experiment [2] (setting [5]) and in experiment [2] (setting [6]) were greater than 20 mg/kg, greater than 10 mg/kg and 0.42 mg/kg, respectively.
For the compound `CS(=O)(=O)c1ccc2c(c1)C(=C1CCN(C[C@H]3CC[C@H](O)CC3)CC1)c1ccccc1S2` [Lu 16-066, 1-(Trans-4-hydroxycyclohexylmethyl)-4-(2-methylsulfonyl-9-thioxanthenylidene)piperidine], the “Duration (remarks, words)” value in experiment [1] is given as “short acting”. Moreover, the “Strength of effect (remarks, words)” value in experiment [1] is “moderately strong”. Moreover, the figures for the ED50 in experiment [4], in experiment [2] (setting [5]) and in experiment [2] (setting [6]) were 0.25 mg/kg, 0.73 mg/kg and greater than 10 mg/kg, respectively.
As to `O[C@H]1CCCC[C@H]1CN1CCC(=C2c3ccc(F)cc3Sc3ccc(C(F)(F)F)cc32)CC1` (relative stereo) [Lu 15-138, 1-(cis-2-hydroxycyclohexylmethyl)-4-(2-trifluoromethyl-6-fluoro-9-thioxanthenylidene)-piperidine], the “Duration (remarks, words)” value in experiment [1] was “long acting”. Besides, the “Strength of effect (remarks, words)” value in experiment [1] was “strong”. Further, the ED50 in experiment [2] (setting [5]) is 1.3 mg/kg; in experiment [2] (setting [6]), 0.15 mg/kg; in experiment [3], 1.7 mg/kg.
On to `O[C@@H]1CC[C@H](CN2CCC(=C3c4ccccc4Sc4ccc(Cl)cc43)CC2)C[C@H]1O` (relative stereo) [Lu 15-041, 1-(3-trans-4-cis-dihydroxycyclohexylmethyl)-4-(2-chloro-9-thioxanthenylidene)piperidine], for which, in experiment [1], the “Duration (remarks, words)” value is given as “moderately long acting”. In addition, the “Strength of effect (remarks, words)” value in experiment [1] is recorded as “strong”. The ED50 is 0.62 mg/kg in experiment [2] (setting [5]), 3.6 mg/kg in experiment [2] (setting [6]) and less than 0.31 mg/kg in experiment [3].
Take `Fc1ccc2c(c1)Sc1ccc(C(F)(F)F)cc1C2=C1CCN(CC2CCOCC2)CC1` [Lu 15-031, 1-(4-tetrahydropyranylmethyl)-4-(2-trifluoromethyl-6-fluoro-9-thioxanthenylidene)piperidine]: in experiment [1], the “Duration (remarks, words)” value was “long acting”. The “Strength of effect (remarks, words)” value in experiment [1] was “moderately strong”. In addition, the values for the ED50 in experiment [2] (setting [5]), in experiment [2] (setting [6]) and in experiment [3] were 0.52 mg/kg, 0.55 mg/kg and 1.3 mg/kg, respectively.
For the compound `CN(C)S(=O)(=O)c1ccc2c(c1)C(=C1CCN(C[C@H]3CC[C@H](O)CC3)CC1)c1ccc(F)cc1S2` [Lu 16-107, 1-(Trans-4-hydroxycyclohexylmethyl)-4-(2-dimethylsulfamoyl-6-fluoro-9-thioxanthenylidene)piperidine], the “Duration (remarks, words)” value in experiment [1] is “long acting”. Also, the “Strength of effect (remarks, words)” value in experiment [1] is on record as “moderately strong”. Besides, the ED50 in experiment [4] is 0.28 mg/kg; in experiment [2] (setting [5]) it was 1.9 mg/kg; in experiment [2] (setting [6]), 0.76 mg/kg.
On to `OC1COC(CN2CCC(=C3c4ccccc4Sc4ccc(Cl)cc43)CC2)OC1` (centres unmarked) [Lu 14-140, 1-(5-hydroxy-1,3-dioxan-2-yl)methyl-4-(2-chloro-9-thioxanthenylidene)-piperidine], for which, in experiment [1], the “Duration (remarks, words)” value is listed as “short acting”. The “Strength of effect (remarks, words)” value in experiment [1] is “strong”. For the same compound, the ED50 in experiment [2] (setting [5]) was 0.77 mg/kg; in experiment [2] (setting [6]), greater than 40 mg/kg.
In the case of `O[C@H]1CC[C@@H](CN2CCC(=C3c4ccccc4Sc4ccc(Cl)cc43)CC2)CC1` [Lu 15-014, 1-(Cis-4-hydroxycyclohexylmethyl)-4-(2-chloro-9-thioxanthenylidene)-piperidine], in experiment [1], the “Duration (remarks, words)” value is “short acting”. Moreover, the “Strength of effect (remarks, words)” value in experiment [1] is “strong”. Moreover, the results for the ED50 in experiment [4], in experiment [2] (setting [5]) and in experiment [2] (setting [6]) were 2.5 mg/kg, 0.2 mg/kg and greater than 10 mg/kg, respectively.
On to “1-(2-Oxazolidinon-3-yl)ethyl)-4-(2-fluoro-6-methyl-9-thioxanthenylidene)-piperidine [Lu-15-062]”, for which, in experiment [1], the “Duration (remarks, words)” value is “short acting” and the “Strength of effect (remarks, words)” value is on record as “moderately strong”. Moreover, in experiment [2] (mice, i.p., methylphenidate 60 mg/kg s.c. 2 h after test substance), the “Methylphenidate antagonism ED50, 2 h” value came to 0.51 mg/kg. Besides, the “Methylphenidate antagonism ED50, 24 h” value in experiment [2] (mice, i.p., methylphenidate 60 mg/kg s.c. 24 h after test substance) was greater than 40 mg/kg.
